Results from paper PMC10486429, “Investigations Using Albumin Binders to Modify the Tissue Distribution Profile of Radiopharmaceuticals Exemplified with Folate Radioconjugates” (Cancers, 2023).

Tests used:
[1] = n-octanol/PBS distribution coefficient (shake-flask) of 177Lu-RedFols; format: physicochemical; conditions: n-octanol/PBS pH 7.4
Procedure: The radiolytic stability of ^177Lu-RedFols (50 MBq/nmol) in PBS pH 7.4 was investigated at an activity concentration of 100 MBq in 500 µL over 24 h at room temperature. The n-octanol/PBS distribution coefficients (logD values) of the folate radioconjugates (50 MBq/nmol) were determined using the same shake-flask method as used for the ^177Lu-DOTA-ALBs, including statistical analysis (Supplementary Material, Section S4). […]
S4. n-Octanol/PBS Distribution Coefficient of 177Lu-DOTA-ALBs
Purpose: The n-octanol/PBS distribution coefficients (logD values) were determined for all 177Lu-DOTA-ALBs in order to assess their hydrophilic/hydrophobic properties.
Methods: The n-octanol/PBS distribution coefficients (logD values) of the 177Lu-DOTA-ALBs were determined as previously described. […] 4 . […]
The vials were vortexed vigorously for 1 min followed by centrifugation for 6 min at 560 rcf for phase separation. An aliquot was taken from each phase and measured in a γ-counter (Perkin Elmer, Wallac Wizard 1480, Waltham, MA, USA). The distribution coeffi-cients were calculated as the logarithm of the ratio of counts per minute (cpm) measured in the n-octanol phase relative to the cpm measured in the PBS phase. The results were listed as the average ± standard deviation (SD) of the data obtained from 2–3 independent experiments, each performed with five replicates. […]

[2] = test system: KB tumor-bearing athymic nude mice; experiment: Biodistribution of 177Lu-RedFols in KB tumor-bearing mice; format: in vivo, mouse
Procedure: Athymic nude mice (Crl:CD1-Foxn^nu) were kept on a folate-deficient rodent diet (ssniff Spezialdiäten GmbH, Soest, Germany) for at least one week prior to inoculation with the tumor cells. Biodistribution studies were performed approx. two weeks after subcutaneous inoculation with KB tumor cells (5 × 10^6 in 100 μL PBS) (Supplementary Materials Section S12). […] Data were presented as the average ± SD of n = 3−4 mice.
Purpose: Biodistribution studies were performed in KB tumor-bearing athymic nude mice (Crl:CD1-Foxnnu) in order to investigate the tissue distribution profiles of the novel radioconjugates. The aim was to compare the impact of the two different albumin binders (4-(p-iodophenyl)butanoate unit vs. 5-(p-iodophenyl)pentanoate unit), and that of the in-corporation of an AMBA linker adjacent to the albumin binder on the distribution profile of the resulting folate radioconjugates.
Methods: The methods are described in the main article. The mice were sacrificed at […]

## CN1c2c(nc(N)[nH]c2=O)NC[C@H]1CNc1ccc(C(=O)N[C@@H](CCC(=O)N[C@@H](CCCCNC(=O)CN2CCN(CC(=O)O)CCN(CC(=O)O)CCN(CC(=O)O)CC2)C(=O)N[C@@H](CCCCNC(=O)c2ccc(CNC(=O)CCCc3ccc(I)cc3)cc2)C(=O)O)C(=O)O)cc1 [[^177Lu]Lu-6R-RedFol-3, metal not drawn]
[1]
  logD Values: −3.2 ± 0.1
[2]
  Tumor-to-kidney ratio, comparison among all folate radioconjugates: highest tumor-to-kidney ratio
[2]; 1 h p.i.
  Blood, accumulated activity: 26 ± 3 % IA/g
  Bone, accumulated activity: 1.8 ± 0.5 % IA/g
  Intestines, accumulated activity: 2.6 ± 0.8 % IA/g
  KB tumor, accumulated activity: 8.5 ± 1.9 % IA/g
  Kidneys, accumulated activity: 8.0 ± 1.3 % IA/g
  Liver, accumulated activity: 3.7 ± 0.4 % IA/g
  Lung, accumulated activity: 11 ± 1 % IA/g
  Muscle, accumulated activity: 1.0 ± 0.1 % IA/g
  Salivary glands, accumulated activity: 5.2 ± 1.5 % IA/g
  Spleen, accumulated activity: 2.9 ± 0.4 % IA/g
  Stomach, accumulated activity: 1.9 ± 0.5 % IA/g
  Tumor-to-blood ratio: 0.33 ± 0.03
  Tumor-to-kidney ratio: 1.1 ± 0.1
  Tumor-to-liver ratio: 2.3 ± 0.4
[2]; 4 h p.i.
  Blood, accumulated activity: 17 ± 1 % IA/g
  Bone, accumulated activity: 1.8 ± 0.1 % IA/g
  Intestines, accumulated activity: 2.0 ± 0.2 % IA/g
  KB tumor, accumulated activity: 18 ± 2 % IA/g
  Kidneys, accumulated activity: 7.6 ± 0.4 % IA/g
  Liver, accumulated activity: 3.0 ± 0.1 % IA/g
  Lung, accumulated activity: 8.2 ± 0.6 % IA/g
  Muscle, accumulated activity: 1.3 ± 0.1 % IA/g
  Salivary glands, accumulated activity: 4.2 ± 0.1 % IA/g
  Spleen, accumulated activity: 2.2 ± 0.2 % IA/g
  Stomach, accumulated activity: 1.5 ± 0.1 % IA/g
  Tumor-to-blood ratio: 1.1 ± 0.1
  Tumor-to-kidney ratio: 2.4 ± 0.2
  Tumor-to-liver ratio: 6.0 ± 0.8
[2]; 24 h p.i.
  Blood, accumulated activity: 7.9 ± 0.7 % IA/g
  Bone, accumulated activity: 1.1 ± 0.1 % IA/g
  Intestines, accumulated activity: 0.96 ± 0.15 % IA/g
  KB tumor, accumulated activity: 39 ± 4 % IA/g
  Kidneys, accumulated activity: 12 ± 2 % IA/g
  Liver, accumulated activity: 1.9 ± 0.3 % IA/g
  Lung, accumulated activity: 4.1 ± 0.1 % IA/g
  Muscle, accumulated activity: 1.0 ± 0.1 % IA/g
  Salivary glands, accumulated activity: 4.0 ± 1.1 % IA/g
  Spleen, accumulated activity: 2.2 ± 0.1 % IA/g
  Stomach, accumulated activity: 1.1 ± 0.1 % IA/g
  Tumor-to-blood ratio: 5.0 ± 0.4
  Tumor-to-kidney ratio: 3.3 ± 0.4
  Tumor-to-liver ratio: 21 ± 1

## CN1c2c(nc(N)[nH]c2=O)NC[C@H]1CNc1ccc(C(=O)N[C@@H](CCC(=O)N[C@@H](CCCCNC(=O)CN2CCN(CC(=O)O)CCN(CC(=O)O)CCN(CC(=O)O)CC2)C(=O)N[C@@H](CCCCNC(=O)CCCCc2ccc(I)cc2)C(=O)O)C(=O)O)cc1 [[^177Lu]Lu-6R-RedFol-24, metal not drawn]
[1]
  logD: -3.4 ± 0.2
[2]; 1 h p.i.
  Blood, accumulated activity: 9.0 ± 1.2 % IA/g
  Bone, accumulated activity: 1.2 ± 0.1 % IA/g
  Intestines, accumulated activity: 1.2 ± 0.3 % IA/g
  KB tumor, accumulated activity: 17 ± 2 % IA/g
  Kidneys, accumulated activity: 36 ± 4 % IA/g
  Liver, accumulated activity: 2.6 ± 0.7 % IA/g
  Lung, accumulated activity: 4.6 ± 0.3 % IA/g
  Muscle, accumulated activity: 1.4 ± 0.1 % IA/g
  Salivary glands, accumulated activity: 6.4 ± 0.1 % IA/g
  Spleen, accumulated activity: 1.3 ± 0.2 % IA/g
  Stomach, accumulated activity: 1.5 ± 0.1 % IA/g
  Tumor-to-blood ratio: 2.0 ± 0.4
  Tumor-to-kidney ratio: 0.48 ± 0.02
  Tumor-to-liver ratio: 6.9 ± 1.6
[2]; 4 h p.i.
  Blood, accumulated activity: 3.2 ± 1.8 % IA/g
  Bone, accumulated activity: 0.87 ± 0.21 % IA/g
  Intestines, accumulated activity: 0.83 ± 0.37 % IA/g
  KB tumor, accumulated activity: 34 ± 6 % IA/g
  Kidneys, accumulated activity: 57 ± 5 % IA/g
  Liver, accumulated activity: 1.9 ± 0.4 % IA/g
  Lung, accumulated activity: 2.4 ± 1.1 % IA/g
  Muscle, accumulated activity: 1.3 ± 0.2 % IA/g
  Salivary glands, accumulated activity: 8.7 ± 0.9 % IA/g
  Spleen, accumulated activity: 0.83 ± 0.25 % IA/g
  Stomach, accumulated activity: 1.4 ± 0.5 % IA/g
  Tumor-to-blood ratio: 12 ± 5
  Tumor-to-kidney ratio: 0.59 ± 0.04
  Tumor-to-liver ratio: 18 ± 3
[2]; 24 h p.i.
  Blood, accumulated activity: 0.06 ± 0.01 % IA/g
  Bone, accumulated activity: 0.49 ± 0.09 % IA/g
  Intestines, accumulated activity: 0.28 ± 0.11 % IA/g
  KB tumor, accumulated activity: 33 ± 2 % IA/g
  Kidneys, accumulated activity: 62 ± 11 % IA/g
  Liver, accumulated activity: 1.2 ± 0.2 % IA/g
  Lung, accumulated activity: 0.60 ± 0.07 % IA/g
  Muscle, accumulated activity: 0.75 ± 0.20 % IA/g
  Salivary glands, accumulated activity: 4.5 ± 0.8 % IA/g
  Spleen, accumulated activity: 0.51 ± 0.13 % IA/g
  Stomach, accumulated activity: 0.54 ± 0.12 % IA/g
  Tumor-to-blood ratio: 583 ± 105
  Tumor-to-kidney ratio: 0.54 ± 0.07
  Tumor-to-liver ratio: 28 ± 7
